Laboratory results as given in patent publication US10065972B2, “Bicyclic or tricyclic heterocyclic compound” (MITSUBISHI TANABE PHARMA CORPORATION, priority 2014, dated 2018).

What follows are compounds tested against human recombinant KAT-II (Homo sapiens (Human), UniProt Q8N5Z0) (assay: KAT-II inhibitory test). Conditions: 3.0 μmol/L kynurenine, 37° C., 1 hr, pH 8.0; kynurenic acid quantified by HPLC.
Type: biochemical
Outline: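 E. coli-expressed His/MBP-tagged human KAT-II (2.0 ng/μL) incubated with 3.0 μmol/L kynurenine and 10 μmol/L pyridoxal phosphate in Tris-acetate pH 8.0, 1 hr at 37 °C. Reaction stopped with TCA. Kynurenic acid quantified by reversed-phase HPLC with fluorescence detection (ex 354/em 460 nm), duplicate at each concentration.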

Chain of human recombinant KAT-II (Q8N5Z0 30-425): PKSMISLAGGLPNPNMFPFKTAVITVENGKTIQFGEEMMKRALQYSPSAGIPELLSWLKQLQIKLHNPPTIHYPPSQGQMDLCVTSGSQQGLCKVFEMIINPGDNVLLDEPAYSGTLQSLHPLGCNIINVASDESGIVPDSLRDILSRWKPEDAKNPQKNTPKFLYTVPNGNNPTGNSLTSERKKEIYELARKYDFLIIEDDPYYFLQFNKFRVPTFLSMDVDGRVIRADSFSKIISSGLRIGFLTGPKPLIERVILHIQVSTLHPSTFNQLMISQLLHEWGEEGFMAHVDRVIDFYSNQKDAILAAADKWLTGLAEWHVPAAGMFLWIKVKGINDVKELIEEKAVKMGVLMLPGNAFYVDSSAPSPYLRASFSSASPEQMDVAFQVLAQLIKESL

`O=C(Oc1ccccc1)N1CCC[C@@H]1c1nn2c(=O)c3c(nc2s1)CCCC3` [Example 149, (R)-2-(5-oxo-6,7,8,9-tetrahydro-5H-[1,3,4]thiadiazolo[2,3-b]quinazolin-2-yl)pyrrolidine-1-carboxylic acid phenyl ester] and `CCc1cc(=O)n2nc([C@H]3CCCN3C(=O)Oc3ccccc3)sc2n1` [Example 146, (R)-2-(7-ethyl-5-oxo-5H-[1,3,4]thiadiazolo[3,2-a]pyrimidin-2-yl)pyrrolidine-1-carboxylic acid phenyl ester] are within 1.5-fold of each other in IC50: 160 nM for the first, 140 nM for the second.

Going from `C[C@H](C(=O)NCc1ccccc1)N(C)c1nc2c(=O)[nH]c(-c3ccccc3F)nc2s1` [Example 532, (R)-N-benzyl-2-{N′-[5-(2-fluorophenyl)-7-oxo-6,7-dihydro[1,3]thiazolo[5,4-d]pyrimidin-2-yl]-N′-methylamino}propionamide] to `Cn1c(-c2ccccc2F)nc2sc(N3CCC[C@@H]3C(=O)NCc3ccccc3)nc2c1=O` [Example 345, (R)-N-benzyl-1-[5-(2-fluorophenyl)-6-methyl-7-oxo-6,7-dihydro[1,3]thiazolo[5,4-d]pyrimidin-2-yl]pyrrolidine-2-carboxamide], the IC50 falls from 17 nM to 8.7 nM (2-fold). The second is the more potent here.

First: CC(C)c1cc(=O)n2nc([C@H]3CCCN3C(=O)NCc3ccccc3Cl)sc2n1 [Example 158, (R)-N-(2-chlorobenzyl)-2-[5-oxo-7-(propan-2-yl)-5H-[1,3,4]thiadiazolo[3,2-a]pyrimidin-2-yl]pyrrolidine-1-carboxamide]
Second: CC(C)c1cc(=O)n2nc([C@H]3CCCN3C(=O)Cc3ccccc3)sc2n1 [Example 142, 2-[(R)-1-(phenylacetyl)pyrrolidin-2-yl]-7-(propan-2-yl)-5H-[1,3,4]thiadiazolo[3,2-a]pyrimidin-5-one]
The IC50 of the first is 5.8-fold lower: 170 nM for the first, 980 nM for the second. The first is the more potent here.

`Cn1c(C(F)F)nc2sc(N3CCC[C@@H]3C(=O)NCc3ccccc3)nc2c1=O` [Example 281, (R)-N-benzyl-1-(5-difluoromethyl-6-methyl-7-oxo-6,7-dihydro-[1,3]thiazolo[5,4-d]pyrimidin-2-yl)pyrrolidine-2-carboxamide] and `O=C(NCc1ccccc1)[C@H]1CCCN1c1nc2c(=O)[nH]c(C(F)F)nc2s1` [Example 539, (R)-N-benzyl-1-(5-difluoromethyl-7-oxo-6,7-dihydro[1,3]thiazolo[5,4-d]pyrimidin-2-yl)pyrrolidine-2-carboxamide] are within 1.5-fold of each other in IC50: 27 nM for the first, 22 nM for the second.

Compared with `CCc1nc2sc(N3CCC[C@@H]3C(=O)NCc3cccc(F)c3)nc2c(=O)n1C` [Example 183, (R)-1-(5-ethyl-6-methyl-7-oxo-6,7-dihydro-[1,3]thiazolo[5,4-d]pyrimidin-2-yl)-N-(3-fluorobenzyl)pyrrolidine-2-carboxamide], `CCc1nc2sc(N3CCCC[C@@H]3C(=O)NCc3ccccc3)nc2c(=O)n1CC` [Example 236, (R)-N-benzyl-1-(5,6-diethyl-7-oxo-6,7-dihydro-[1,3]thiazolo[5,4-d]pyrimidin-2-yl)piperidine-2-carboxamide] is 7.5-fold higher in IC50: 32 nM for the first, 240 nM for the second.

First: Cn1c(N2CCOCC2)nc2sc(N3CCC[C@@H]3C(=O)NCc3ccccc3)nc2c1=O [Example 339, (R)-N-benzyl-1-[6-methyl-5-(morpholin-4-yl)-7-oxo-6,7-dihydro[1,3]thiazolo[5,4-d]pyrimidin-2-yl]pyrrolidine-2-carboxamide]
Second: Cn1c(CN2CCOCC2)nc2sc(N3CCC[C@@H]3C(=O)NCc3ccccc3)nc2c1=O [Example 322, (R)-N-benzyl-1-{6-methyl-5-[(morpholin-4-yl)methyl]-7-oxo-6,7-dihydro[1,3]thiazolo[5,4-d]pyrimidin-2-yl}pyrrolidine-2-carboxamide]
The IC50 of the first is 2.5-fold lower: 7.9 nM for the first, 20 nM for the second. The first is the more potent here.

Going from `CCCc1cc(=O)n2nc(N3CCCN3C(=O)Oc3ccccc3)sc2n1` [Example 176, 2-(5-oxo-7-propyl-5H-[1,3,4]thiadiazolo[3,2-a]pyrimidin-2-yl)pyrazolidine-1-carboxylic acid phenyl ester] to `Cc1cccc(OC(=O)N2CCCN2c2nc3c(=O)[nH]c(C(C)(C)F)nc3s2)c1` [Example 132, 2-[5-(2-fluoropropan-2-yl)-7-oxo-6,7-dihydro[1,3]thiazolo[5,4-d]pyrimidin-2-yl]pyrazolidine-1-carboxylic acid 3-methylphenyl ester], the IC50 falls from 520 nM to 51 nM (10-fold).

Going from `Cc1ccc(-c2nc3sc(N4CCC[C@@H]4C(=O)NCc4ccccc4)nc3c(=O)[nH]2)s1` [Example 500, (R)-N-benzyl-1-[5-(5-methylthiophen-2-yl)-7-oxo-6,7-dihydro[1,3]thiazolo[5,4-d]pyrimidin-2-yl]pyrrolidine-2-carboxamide] to `CC(C)(F)c1[nH]c(=O)c2nc(N3CCC[C@@H]3C(=O)NCc3ccccc3)sc2c1Cl` [Example 626, (R)-N-benzyl-1-[7-chloro-6-(2-fluoropropan-2-yl)-4-oxo-4,5-dihydro[1,3]thiazolo[4,5-c]pyridin-2-yl]pyrrolidine-2-carboxamide], the IC50 falls from 41 nM to 15 nM (2.7-fold).

Compared with `O=C(Oc1ccccc1)N1CCC[C@@H]1c1nc2c(=O)[nH]c(C3CCC(F)(F)CC3)nc2s1` [Example 74, (R)-2-[5-(4,4-difluorocyclohexyl)-7-oxo-6,7-dihydro[1,3]thiazolo[5,4-d]pyrimidin-2-yl]pyrrolidine-1-carboxylic acid phenyl ester], `CC(C)c1nc2sc([C@H]3CCCN3C(=O)Oc3ccccc3)nc2c(=O)[nH]1` [Example 63, (R)-2-[7-oxo-5-(propan-2-yl)-6,7-dihydro[1,3]thiazolo[5,4-d]pyrimidin-2-yl]pyrrolidine-1-carboxylic acid phenyl ester] is 5.6-fold lower in IC50: 84 nM for the first, 15 nM for the second. The second is the more potent here.

Going from `Cc1noc(-c2nc3sc([C@H]4CCCN4C(=O)Oc4ccccc4)nc3c(=O)[nH]2)n1` [Example 120, (R)-2-[5-(3-methyl-[1,2,4]oxadiazol-5-yl)-7-oxo-6,7-dihydro[1,3]thiazolo[5,4-d]pyrimidin-2-yl]pyrrolidine-1-carboxylic acid phenyl ester] to `O=C(Oc1ccccc1)N1CCC[C@@H]1c1nc2c(=O)[nH]c(-c3ccc(F)cc3F)nc2s1` [Example 67, (R)-2-[5-(2,4-difluorophenyl)-7-oxo-6,7-dihydro[1,3]thiazolo[5,4-d]pyrimidin-2-yl]pyrrolidine-1-carboxylic acid phenyl ester], the IC50 rises from 4.7 nM to 14 nM (3-fold).

Going from `O=C(NCc1ccccc1)[C@H]1CCCN1c1nc2c(=O)n(N3CCOCC3)c(C(F)(F)F)nc2s1` [Example 253, (R)-N-benzyl-1-[6-(morpholin-4-yl)-7-oxo-5-trifluoromethyl-6,7-dihydro-[1,3]thiazolo[5,4-d]pyrimidin-2-yl]pyrrolidine-2-carboxamide] to `O=C(NCc1ccccc1)[C@H]1CCCN1c1nc2c(=O)n3c(nc2s1)C(F)(F)CCC3` [Example 605, (R)-N-benzyl-1-(5,5-difluoro-10-oxo-5,7,8,10-tetrahydro-6H-pyrido[1,2-a][1,3]thiazolo[5,4-d]pyrimidin-2-yl)pyrrolidine-2-carboxamide], the IC50 falls from 89 nM to 8.2 nM (11-fold).

Compared with `O=C(NCc1ccccc1)[C@H]1CCCN1c1nc2c(=O)n3c(nc2s1)CN(CC(F)F)CC3` [Example 593, (R)-N-benzyl-1-[6-(2,2-difluoroethyl)-10-oxo-5,7,8,10-tetrahydro-6H-pyrazino[1,2-a][1,3]thiazolo[5,4-d]pyrimidin-2-yl]pyrrolidine-2-carboxamide], `C[C@@H]1CN(C)Cc2nc3sc(N4CCC[C@@H]4C(=O)NCc4ccccc4)nc3c(=O)n21` [Example 601, (R)-N-benzyl-1-[(R)-6,8-dimethyl-10-oxo-5,7,8,10-tetrahydro-6H-pyrazino[1,2-a][1,3]thiazolo[5,4-d]pyrimidin-2-yl]pyrrolidine-2-carboxamide] is 2.7-fold higher in IC50: 51 nM for the first, 140 nM for the second. The first is the more potent here.

Going from `CCc1nc2sc(N3CCC[C@@H]3C(=O)NCc3cnc(C)cn3)nn2c(=O)c1F` [Example 685, (R)-1-(7-ethyl-6-fluoro-5-oxo-5H-[1,3,4]thiadiazolo[3,2-a]pyrimidin-2-yl)-N-[(5-methylpyrazin-2-yl)methyl]pyrrolidine-2-carboxamide] to `CCc1c(Cl)c(=O)n2nc(N3CCC[C@@H]3C(=O)NCc3ccccc3)sc2c1Cl` [Example 701, (R)-N-benzyl-1-(6,8-dichloro-7-ethyl-5-oxo-5H-[1,3,4]thiadiazolo[3,2-a]pyridin-2-yl)pyrrolidine-2-carboxamide], the IC50 falls from 2200 nM to 50 nM (44-fold). The second is the more potent here.

First: O=C(Oc1ccccc1)N1CCC[C@@H]1c1nc2c(=O)[nH]c(N3CCCCC3)nc2s1 [Example 107, (R)-2-[7-oxo-5-(piperidin-1-yl)-6,7-dihydro[1,3]thiazolo[5,4-d]pyrimidin-2-yl]pyrrolidine-1-carboxylic acid phenyl ester]
Second: O=C(Oc1ccccc1)N1CCC[C@@H]1c1nc2c(=O)[nH]c(C(F)(F)F)cc2s1 [Example 138, (R)-2-(4-oxo-6-trifluoromethyl-4,5-dihydro[1,3]thiazolo[4,5-c]pyridin-2-yl)pyrrolidine-1-carboxylic acid phenyl ester]
The IC50 of the first is 8.5-fold lower: 46 nM for the first, 390 nM for the second. The first is the more potent here.

First: COc1ccc(Cn2c(C(C)(C)F)nc3sc(N4CCC[C@@H]4C(=O)NCc4ccccc4)nc3c2=O)c(OC)c1 [Example 414, (R)-N-benzyl-1-[6-(2,4-dimethoxybenzyl)-5-(2-fluoropropan-2-yl)-7-oxo-6,7-dihydro[1,3]thiazolo[5,4-d]pyrimidin-2-yl]pyrrolidine-2-carboxamide]
Second: Cn1c(C2CC2)nc2sc(N3CC(F)(F)C[C@@H]3C(=O)NCc3ccccc3)nc2c1=O [Example 572, (R)-N-benzyl-1-(5-cyclopropyl-6-methyl-7-oxo-6,7-dihydro[1,3]thiazolo[5,4-d]pyrimidin-2-yl)-4,4-difluoropyrrolidine-2-carboxamide]
The IC50 of the first is 2-fold lower: 43 nM for the first, 86 nM for the second. The first is the more potent here.

`CC(C)c1cc(=O)n2nc([C@H]3CCCN3C(=O)CN3CCCc4ccccc43)sc2n1` [Example 166, 2-{(R)-1-[(3,4-dihydroquinolin-1(2H)-yl)acetyl]pyrrolidin-2-yl}-7-(propan-2-yl)-5H-[1,3,4]thiadiazolo[3,2-a]pyrimidin-5-one] was tested, and the IC50 was 190 nM.
